Target: T1, human NOX4 (Homo sapiens, UniProt Q9NPH5)
T1 construct: expressed in transfected cells; membrane fraction used
T1 sequence (Q9NPH5 1-578): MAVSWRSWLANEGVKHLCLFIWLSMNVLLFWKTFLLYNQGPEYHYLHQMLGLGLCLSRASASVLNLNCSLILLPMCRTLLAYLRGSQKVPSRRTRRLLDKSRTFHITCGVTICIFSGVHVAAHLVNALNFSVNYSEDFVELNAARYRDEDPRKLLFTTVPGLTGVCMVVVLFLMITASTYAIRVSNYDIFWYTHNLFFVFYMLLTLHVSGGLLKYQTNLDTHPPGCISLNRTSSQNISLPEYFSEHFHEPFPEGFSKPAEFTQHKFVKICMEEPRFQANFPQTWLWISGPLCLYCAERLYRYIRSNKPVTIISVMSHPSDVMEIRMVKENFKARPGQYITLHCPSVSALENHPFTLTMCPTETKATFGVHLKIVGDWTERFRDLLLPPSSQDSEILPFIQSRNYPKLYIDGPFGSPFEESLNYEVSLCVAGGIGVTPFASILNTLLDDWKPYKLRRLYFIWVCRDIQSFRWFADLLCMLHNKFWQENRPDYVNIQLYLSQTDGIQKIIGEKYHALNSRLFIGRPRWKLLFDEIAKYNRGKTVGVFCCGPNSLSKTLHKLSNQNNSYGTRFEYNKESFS
T1 sequence (P13498 1-195 partner): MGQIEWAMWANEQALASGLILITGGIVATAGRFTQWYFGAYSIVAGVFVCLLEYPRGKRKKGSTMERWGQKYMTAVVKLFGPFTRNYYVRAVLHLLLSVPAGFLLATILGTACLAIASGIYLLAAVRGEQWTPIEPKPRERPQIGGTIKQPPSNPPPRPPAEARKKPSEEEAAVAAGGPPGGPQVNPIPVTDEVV
Assay: Cell free membrane based in vitro NOX4 assay: H2O2 production by membranes expressing human NOX4, measured with Amplex Red
Type: biochemical
Conditions: for inhibition at 1 µM: 1.0 μM compound, read-out: Percentage inhibition at 1.0 μM; for inhibition at 10 µM: 10.0 μM compound, read-out: Percentage inhibition at 10.0 μM; for IC50: class symbols
Method: The inhibition of NOX4 activity was measured as inhibition of formation of reactive oxygen species (ROS) from oxygen in cell free assays. […] A cell free membrane based in vitro assay was developed by preparing membranes from cells stably overexpressing human NOX4. hNOX4/HEK stable cell line was generated in-house for this purpose. Membranes from stably transfected cells overexpressing human NOX4 were prepared by homogenizing the cells in buffer (20 mM HEPES, 1 mM EGTA, 0.5 mM DTT, 0.5% protease inhibitor cocktail, 1 mM PMSF, pH 7.6), followed by centrifugation at 160000 g for 30 min. Membrane fraction (pellet) was resuspended in storage buffer (homogenization buffer with 10% glycerol and 100 mM NaCl) and stored at −80° C. Protein concentration was determined by Bradford reagent. H202 production by membranes expressing human NOX4 was measured using Amplex Red (Invitrogen) by following a slightly modified version of the manufacturer's instruction manual. Briefly, membranes were incubated in assay buffer (25 mM HEPES, 0.12 M NaCl, 3 mM KCl, 1 mM MgCl2, pH 7.4) with Horse Radish Peroxidase (HRP) and Amplex Red. Reaction was started by addition of […] to the membrane mix. Antagonism of NOX4 inhibitors was measured by incubating the membrane with increasing concentrations of the inhibitors for 20 min on a plate shaker prior to addition of NADPH. H2O2 levels were measured for 10 min in a BMG Fluostar microplate reader with excitation and emission wavelengths of 544 nm and 590 nm respectively. Concentration response curves were plotted as a % of maximal response obtained in the absence of the inhibitor. IC50 value was calculated from concentration response curve by nonlinear regression analysis using GraphPad PRISM software.

COc1ccc(-c2[nH]c3c(c(C(F)(F)F)nn3C)c(=O)c2O)c(Cl)c1 [Example 48, 6-(2-Chloro-4-methoxyphenyl)-5-hydroxy-1-methyl-3-(trifluoromethyl)-1,7-dihydro-4H-pyrazolo[3,4-b]pyridin-4-one]
inhibition at 1 µM: 84.2% | inhibition at 10 µM: 98.3% | IC50: 100 to 150 nM

COc1ccc(Cl)c(-c2[nH]c3c(c(C(F)(F)F)nn3C)c(=O)c2O)c1 [Example 49, 6-(2-Chloro-5-methoxyphenyl)-5-hydroxy-1-methyl-3-(trifluoromethyl)-1,7-dihydro-4H-pyrazolo[3,4-b]pyridin-4-one]
inhibition at 1 µM: 100% | inhibition at 10 µM: 100% | IC50: > 150 nM

Cn1nc(C(F)(F)F)c2c(=O)c(O)c(-c3cc(Cl)ccc3Cl)[nH]c21 [Example 50, 6-(2,5-Dichlorophenyl)-5-hydroxy-1-methyl-3-(trifluoromethyl)-1,7-dihydro-4H-pyrazolo[3,4-b]pyridin-4-one]
inhibition at 1 µM: 89.3% | inhibition at 10 µM: 99.5% | IC50: 100 to 150 nM

COc1ccc(-c2[nH]c3c(c(C(F)(F)F)nn3C)c(=O)c2O)c(OC)c1 [Example 51, 6-(2,4-Dimethoxyphenyl)-5-hydroxy-1-methyl-3-(trifluoromethyl)-1,7-dihydro-4H-pyrazolo[3,4-b]pyridin-4-one]
inhibition at 1 µM: 74.4% | inhibition at 10 µM: 86.5% | IC50: > 150 nM

Cn1nc(C(F)(F)F)c2c(=O)c(O)c(-c3ccc(Cl)cc3F)[nH]c21 [Example 52, 6-(4-Chloro-2-fluorophenyl)-5-hydroxy-1-methyl-3-(trifluoromethyl)-1,7-dihydro-4H-pyrazolo[3,4-b]pyridin-4-one]
inhibition at 1 µM: 75.8% | inhibition at 10 µM: 94.9% | IC50: > 150 nM

COc1ccc(-c2[nH]c3c(c(C(F)(F)F)nn3C)c(=O)c2O)cc1 [Example 53, 5-Hydroxy-6-(4-methoxyphenyl)-1-methyl-3-(trifluoromethyl)-1,7-dihydro-4H-pyrazolo[3,4-b]pyridin-4-one]
inhibition at 1 µM: 90.5% | inhibition at 10 µM: 84.6% | IC50: 100 to 150 nM

Cn1nc(C(F)(F)F)c2c(=O)c(O)c(-c3ccc(-n4ccnc4)cc3)[nH]c21 [Example 54, 5-Hydroxy-6-[4-(1H-imidazol-1-yl)phenyl]-1-methyl-3-(trifluoromethyl)-1,7-dihydro-4H-pyrazolo[3,4-b]pyridin-4-one]
inhibition at 1 µM: 92.1% | inhibition at 10 µM: 94.5% | IC50: 100 to 150 nM

Cn1nc(C(F)(F)F)c2c(=O)c(O)c(-c3ccncc3)[nH]c21 [Example 55, 5-Hydroxy-1-methyl-6-(pyridin-4-yl)-3-(trifluoromethyl)-1,7-dihydro-4H-pyrazolo[3,4-b]pyridin-4-one]
inhibition at 1 µM: 83.8% | inhibition at 10 µM: 94.2% | IC50: > 150 nM

CCc1nn(C)c2[nH]c(-c3ccccc3Cl)c(O)c(=O)c12 [Example 56, 6-(2-Chlorophenyl)-3-ethyl-5-hydroxy-1-methyl-1,7-dihydro-4H-pyrazolo[3,4-b]pyridin-4-one]
inhibition at 1 µM: 82.4% | inhibition at 10 µM: 69.8% | IC50: < 50 nM

Cn1nc2[nH]c(-c3ccccc3Cl)c(O)c(=O)c2c1Cc1ccccc1F [Example 57, 6-(2-Chlorophenyl)-3-(2-fluorobenzyl)-5-hydroxy-2-methyl-2,7-dihydro-4H-pyrazolo[3,4-b]pyridin-4-one]
inhibition at 1 µM: 21.9% | inhibition at 10 µM: 13.5%

Cn1nc2[nH]c(-c3ccccc3Cl)c(O)c(=O)c2c1-c1ccc(F)cc1 [Example 58, 6-(2-Chlorophenyl)-3-(4-fluorophenyl)-5-hydroxy-2-methyl-2,7-dihydro-4H-pyrazolo[3,4-b]pyridin-4-one]
inhibition at 1 µM: 36.7% | inhibition at 10 µM: 51.2%

Cc1c2c(=O)c(O)c(-c3ccccc3Cl)[nH]c2nn1C [Example 59, 6-(2-Chlorophenyl)-5-hydroxy-2,3-dimethyl-2,7-dihydro-4H-pyrazolo[3,4-b]pyridin-4-one]
inhibition at 1 µM: 41.1% | inhibition at 10 µM: 38.8%

Cc1cc2c(=O)c(O)c(-c3ccccc3Cl)[nH]c2s1 [Example 60, 6-(2-Chlorophenyl)-5-hydroxy-2-methylthieno[2,3-b]pyridin-4(7H)-one]
inhibition at 1 µM: 77% | inhibition at 10 µM: 100% | IC50: > 150 nM

Cc1cc2c(=O)c(O)c(-c3ccc(F)c(C(F)(F)F)c3)[nH]c2s1 [Example 61, 6-[4-Fluoro-3-(trifluoromethyl)phenyl]-5-hydroxy-2-methylthieno[2,3-b]pyridin-4(7H)-one]
inhibition at 1 µM: 100% | inhibition at 10 µM: 100% | IC50: 50 to 100 nM

Cc1nc2c(=O)c(O)c(-c3ccccc3Cl)[nH]c2s1 [Example 62, 5-(2-Chlorophenyl)-6-hydroxy-2-methyl[1,3]thiazolo[5,4-b]pyridin-7(4H)-one]
inhibition at 1 µM: 39% | inhibition at 10 µM: 98% | IC50: > 150 nM

O=c1c(O)c(-c2ccccc2Cl)[nH]c2sc(C(F)(F)F)nc12 [Example 63, 5-(2-Chlorophenyl)-6-hydroxy-2-trifluoromethyl[1,3]thiazolo[5,4-b]pyridin-7(4H)-one]
inhibition at 1 µM: 58.6% | inhibition at 10 µM: 100% | IC50: > 150 nM

Cc1noc2[nH]c(-c3ccccc3Cl)c(O)c(=O)c12 [Example 64, 6-(2-Chlorophenyl)-5-hydroxy-3-methyl[1,2]oxazolo[5,4-b]pyridin-4(7H)-one]
inhibition at 1 µM: 68.8% | inhibition at 10 µM: 100% | IC50: > 150 nM

COCCOc1ccc(-c2[nH]c3c(c(C)nn3C)c(=O)c2O)c(Cl)c1 [Example 65, 6-(2-Chloro-4-(2-methoxyethoxy)phenyl)-5-hydroxy-1,3-dimethyl-1H-pyrazolo[3,4-b]pyridin-4(7H)-one]
inhibition at 1 µM: 74.7% | inhibition at 10 µM: 63.1% | IC50: > 150 nM

COCCOc1ccc(-c2[nH]c3c(c(C(F)(F)F)nn3C)c(=O)c2O)c(F)c1 [Example 66, 6-(2-Fluoro-4-(2-methoxyethoxy)phenyl)-5-hydroxy-1-methyl-3-(trifluoromethyl)-1H-pyrazolo[3,4-b]pyridin-4(7H)-one]
inhibition at 1 µM: 100% | inhibition at 10 µM: 100% | IC50: > 150 nM

COc1cc(F)c(-c2[nH]c3c(c(C)nn3C)c(=O)c2O)c(F)c1 [Example 67, 6-(2,6-Difluoro-4-methoxyphenyl)-5-hydroxy-1,3-dimethyl-1H-pyrazolo[3,4-b]pyridin-4(7H)-one]
inhibition at 1 µM: 87.1% | inhibition at 10 µM: 85.7% | IC50: 50 to 100 nM

CCn1nc(C)c2c(=O)c(O)c(-c3c(F)cccc3F)[nH]c21 [Example 68, 6-(2,6-Difluorophenyl)-1-ethyl-5-hydroxy-3-methyl-1H-pyrazolo[3,4-b]pyridin-4(7H)-one]
inhibition at 1 µM: 84.3% | inhibition at 10 µM: 80.3% | IC50: 50 to 100 nM

CCn1nc(C)c2c(=O)c(O)c(-c3ccc(OC)cc3F)[nH]c21 [Example 69, 1-Ethyl-6-(2-fluoro-4-methoxyphenyl)-5-hydroxy-3-methyl-1H-pyrazolo[3,4-b]pyridin-4(7H)-one]
inhibition at 1 µM: 67.2% | IC50: > 150 nM

COc1ccc(-c2[nH]c3c(c(C)nn3CC(F)(F)F)c(=O)c2O)c(F)c1 [Example 70, 6-(2-Fluoro-4-methoxyphenyl)-5-hydroxy-3-methyl-1-(2,2,2-trifluoroethyl)-1H-pyrazolo[3,4-b]pyridin-4(7H)-one]
inhibition at 1 µM: 97.5% | inhibition at 10 µM: 98.4% | IC50: > 150 nM

CCc1nn(C)c2[nH]c(-c3c(F)cccc3F)c(O)c(=O)c12 [Example 71, 6-(2,6-Difluorophenyl)-3-ethyl-5-hydroxy-1-methyl-1H-pyrazolo[3,4-b]pyridin-4(7H)-one]
inhibition at 1 µM: 81.5% | inhibition at 10 µM: 79.3% | IC50: < 50 nM

CCc1nn(C)c2[nH]c(-c3ccc(OC)cc3F)c(O)c(=O)c12 [Example 72, 3-Ethyl-6-(2-fluoro-4-methoxyphenyl)-5-hydroxy-1-methyl-1H-pyrazolo[3,4-b]pyridin-4(7H)-one]
inhibition at 1 µM: 82.2% | IC50: 100 to 150 nM
